According to US9359338B2, “Cyclopropanecarboxamido-substitute aromatic compounds as anti-tumor agents” (Crown Bioscience Inc. (Taiwan), priority 2012, dated 2016):
Read-outs that look alike come from different tables or passages of the source.

Columns and labels:
[1] = system: PLC-PRF-5 cells; assay: Inhibition of proliferation of PLC-PRF-5 cells (ATPlite); type: cell-based; conditions: Homo sapiens
Method in brief: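 PLC-PRF-5 cells in DMEM/10% FBS, seeded 2 h before compound; 8-point 3-fold dilutions from 30 μM final top, 0.3% DMSO. After 96 h at 37 °C, 5% CO2, ATP content read by ATPlite luminescence; IC50 calculated.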

[2] = system: pERK in MDA-MB-231 cells; assay: Inhibitory activity at pERK (In Cell Western, MDA-MB-231 cells); type: cell-based; conditions: Homo sapiens
Method in brief: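 MDA-MB-231 cells were treated 2 h at 37 °C with 8 compound concentrations in 3-fold dilutions from 30 μM top (0.3% DMSO, DMEM with 0.1% BSA). Cells were then fixed, methanol-permeabilized and immunostained for pERK with PI counterstain. Fluorescence was read on Acumen and IC50 calculated.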

[3] = target: KDR kinase (790-1356 AA) (Homo sapiens (Human), UniProt P35968); assay: Inhibitory activity at KDR kinase (Lance Ultra Ulight-TK assay); type: biochemical
KDR kinase (790-1356 AA), sequence (P35968 790-1356): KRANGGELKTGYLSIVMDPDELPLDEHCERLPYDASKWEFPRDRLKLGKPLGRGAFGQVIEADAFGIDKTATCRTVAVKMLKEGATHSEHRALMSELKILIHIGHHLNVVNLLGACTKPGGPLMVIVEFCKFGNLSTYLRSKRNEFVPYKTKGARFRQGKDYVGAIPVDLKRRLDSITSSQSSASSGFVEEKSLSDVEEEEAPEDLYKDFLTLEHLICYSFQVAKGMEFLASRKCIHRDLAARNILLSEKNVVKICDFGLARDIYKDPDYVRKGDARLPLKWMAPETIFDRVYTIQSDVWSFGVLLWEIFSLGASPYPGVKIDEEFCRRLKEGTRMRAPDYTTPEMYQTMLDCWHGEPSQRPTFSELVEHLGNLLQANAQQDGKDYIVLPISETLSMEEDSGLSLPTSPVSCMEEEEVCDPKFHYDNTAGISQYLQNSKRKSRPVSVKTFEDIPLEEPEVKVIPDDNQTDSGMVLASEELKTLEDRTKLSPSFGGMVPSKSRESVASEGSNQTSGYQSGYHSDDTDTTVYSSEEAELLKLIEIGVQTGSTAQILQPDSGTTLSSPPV
Method in brief: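 TR-FRET (Eu-anti-phosphotyrosine PT66) with 20 nM KDR preincubated with compound 20 min at 30 °C in HEPES pH 7.5 buffer with Mg2+/Mn2+, 0.5% DMSO.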

[4] = target: B-Raf kinase (Homo sapiens (Human), UniProt P15056); assay: Inhibitory activity at B-Raf kinase (ADP-GLO assay); type: biochemical
B-Raf kinase, sequence (P15056 416-766): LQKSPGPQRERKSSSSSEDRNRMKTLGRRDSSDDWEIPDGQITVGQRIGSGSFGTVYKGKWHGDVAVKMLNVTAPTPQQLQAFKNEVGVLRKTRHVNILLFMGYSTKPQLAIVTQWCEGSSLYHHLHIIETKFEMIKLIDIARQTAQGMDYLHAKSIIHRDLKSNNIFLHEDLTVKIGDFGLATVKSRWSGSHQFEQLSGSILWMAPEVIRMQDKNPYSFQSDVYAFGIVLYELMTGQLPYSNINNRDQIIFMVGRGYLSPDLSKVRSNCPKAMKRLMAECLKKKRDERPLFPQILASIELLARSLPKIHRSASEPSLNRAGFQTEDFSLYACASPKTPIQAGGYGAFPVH
Description: Inhibitory Activity of Compounds at B-Raf Kinase
• [Experimental method]: Use ADP-GLO™ assay kit from Promega to evaluate the inhibitory activity of compounds at B-Raf • [Instrument]: PerKinElmer's ENVISION plate reader • [Material]: Optiplate-384 well plate (PerKinElmer), kinase buffer (50 mM Hepes pH7.5, 1 mM EGTA, 2 mM DTT, 10 mM Mg^2+, 0.05% BSA), B-Raf kinase (Millipore, catalogue #14-530-K), GST-MEK1 substrate (Carna, catalogue #07-141-10), Super pure ATP (Promega), ADP-GLO™ assay kit (Promega, catalogue # V9102), DMSO (Sigma, catalogue #34869), purified water (Millipore, type: Milli-Q). • [Study conditions]: Mix B-Raf kinase (final concentration: 5 nM) and compound (DMSO final concentration: 0.25%) and preincubate at 30° C. for 20 min, then add ATP (final concentration: 6 μM) and reaction substrate (final concentration: 30 nM), React for 2 hrs at 30° C. After reaction, add ADP-GLO™ reagent, react for 40 min at room temperature, then add ADP-GLO™ detecting agent, react for 30 min at room temperature. After that, use ENVSION to measure the […]. • [Samples]: Compounds in the examples and Sorafenib (positive control) • [Data analysis]: Use CBIS data analysis software to calculate IC50 values

[5] = PLC-PRF-5, PLC-PRF-5 cells, read-out: PLC-PRF-5 cell proliferation IC50
[6] = MDA-MB-231, MDA-MB-231 cells, read-out: MDA-MB-231 pERK IC50

Compound	IC50 [2, 6] [nM]	IC50 [3] [nM]	IC50 [4] [nM]	IC50 [1, 5] [nM]	IC50 ([1]; PLC-PRF-5, read-out: PLC-PRF-5 cell proliferation IC50) [nM]	IC50 ([2]; MDA-MB-231, read-out: MDA-MB-231 pERK IC50) [nM]
CS(=O)(=O)c1cc(NC(=O)Nc2ccc(Oc3ccnc(NC(=O)C4CC4)c3)cn2)cc(C(F)(F)F)c1 [Exe. 136]	46	6.6	29	470	–	–
N#Cc1ccc(NC(=O)Nc2ccc(Oc3ccnc(NC(=O)C4CC4)c3)cc2)cc1C(F)(F)F [Exe. 139]	–	10	13	–	654	10.9
O=C(Nc1ccc(Oc2ccnc(NC(=O)C3CC3)c2)cc1)Nc1cc(F)cc(C(F)(F)F)c1 [Exe. 141]	40.4	7.1	125	642	–	–
CC(F)(F)c1cc(NC(=O)Nc2ccc(Oc3ccnc(NC(=O)C4CC4)c3)cc2)ccc1Cl [Exe. 149]	25.4	25.4	38	800	–	–
N#Cc1cc(NC(=O)Nc2ccc(Oc3ccnc(NC(=O)C4CC4)c3)cc2)cc(C(F)(F)F)c1 [Exe. 152]	33	7.1	72	390	–	–
O=C(Nc1ccc(Oc2ccnc(NC(=O)C3CC3)c2)c(F)c1)Nc1cc(C(F)(F)F)ccc1F [Exe. 156]	37.7	8.3	37	52	–	–
O=C(Nc1ccc(Oc2ccnc(NC(=O)C3CC3)c2)c(F)c1)Nc1cc(C(F)(F)F)ccc1Cl [Exe. 157]	34.7	5.9	43	156	–	–
O=C(Nc1cc(-c2ccncc2)cc(C(F)(F)F)c1)Nc1ccc(Oc2ccnc(NC(=O)C3CC3)c2)c(F)c1 [Exe. 159]	44.3	8	35.4	642	–	–
CN1CCC(Nc2cc(NC(=O)Nc3ccc(Oc4ccnc(NC(=O)C5CC5)c4)c(F)c3)cc(C(F)(F)F)c2)CC1 [Exe. 161]	86.9	12.2	7.9	1340	–	–
CC1CN(c2cc(NC(=O)Nc3ccc(Oc4ccnc(NC(=O)C5CC5)c4)c(F)c3)cc(C(F)(F)F)c2)CCO1 (centres unmarked) [Exe. 162]	30.6	6.8	22.5	330	–	–
C=CC(=O)Nc1cc(NC(=O)Nc2ccc(Oc3ccnc(NC(=O)C4CC4)c3)c(F)c2)cc(C(F)(F)F)c1 [Exe. 163]	32.9	11.6	24	998	–	–
CN1CCC(Oc2cc(NC(=O)Nc3ccc(Oc4ccnc(NC(=O)C5CC5)c4)c(F)c3)cc(C(F)(F)F)c2)CC1 [Exe. 164]	198	30.7	71.5	2950	–	–
CS(=O)(=O)Nc1cc(NC(=O)Nc2ccc(Oc3ccnc(NC(=O)C4CC4)c3)c(F)c2)cc(C(F)(F)F)c1 [Exe. 165]	41	5.5	6.6	1070	–	–
O=C(Nc1cc(N2CCS(=O)(=O)CC2)cc(C(F)(F)F)c1)Nc1ccc(Oc2ccnc(NC(=O)C3CC3)c2)c(F)c1 [Exe. 166]	45.5	11.5	27	1640	–	–
CN1CCN(Cc2cc(NC(=O)Nc3ccc(Oc4ccnc(NC(=O)C5CC5)c4)c(F)c3)cc(C(F)(F)F)c2)CC1 [Exe. 167]	262	16.1	23.8	1230	–	–
O=C(Nc1ccc(Oc2ccnc(NC(=O)C3CC3)c2)c(F)c1)Nc1cc(C(F)(F)F)ncn1 [Exe. 170]	31.6	5.6	96	230	–	–
O=C(Nc1cccc(OC(F)(F)F)c1)Nc1ccc(Oc2ccnc(NC(=O)C3CC3)c2)c(F)c1 [Exe. 175]	30.5	4.9	9.8	270	–	–
O=C(Nc1ccc(OC(F)(F)F)cc1)Nc1ccc(Oc2ccnc(NC(=O)C3CC3)c2)c(F)c1 [Exe. 178]	159	5.3	34.7	4880	–	–
CC(F)(F)c1ccc(F)c(NC(=O)Nc2ccc(Oc3ccnc(NC(=O)C4CC4)c3)c(F)c2)c1 [Exe. 181]	25.7	7.1	4.8	23	–	–
O=C(Nc1ccc(Oc2ccnc(NC(=O)C3CC3)c2)c(F)c1)Nc1cc(Cl)ccc1F [Exe. 184]	310	7.6	73.4	610	–	–
O=C(Nc1cc(-c2cccnc2)cc(C(F)(F)F)c1)Nc1ccc(Oc2ccnc(NC(=O)C3CC3)c2)c(F)c1 [Exe. 186]	53.3	5	27.5	640	–	–
CC(C)Nc1cc(NC(=O)Nc2ccc(Oc3ccnc(NC(=O)C4CC4)c3)c(F)c2)cc(C(F)(F)F)c1 [Exe. 187]	63.8	6.8	34.3	638	–	–

Further lines, with some results ahead:

IC50 [2, 6] [nM]	IC50 [3] [nM]	IC50 [4] [nM]	Compound	IC50 [1, 5] [nM]	IC50 ([1]; PLC-PRF-5, read-out: PLC-PRF-5 cell proliferation IC50) [nM]	IC50 ([2]; MDA-MB-231, read-out: MDA-MB-231 pERK IC50) [nM]
7.8	10.2	11.3	O=C(Nc1ccc(Oc2ccnc(NC(=O)C3CC3)c2)cc1)Nc1ccc(Cl)c(C(F)(F)F)c1 [Exe. 137]	5960	–	–
9.1	10.5	26	O=C(Nc1ccc(Oc2ccnc(NC(=O)C3CC3)c2)cc1)Nc1ccc(F)c(C(F)(F)F)c1 [Exe. 138]	1510	–	–
13.9	10.4	39	O=C(Nc1ccc(Oc2ccnc(NC(=O)C3CC3)c2)cc1)Nc1cc(C(F)(F)F)ccc1Cl [Exe. 142]	642	–	–
13.4	9.5	5.5	CN1CCC(c2cc(NC(=O)Nc3ccc(Oc4ccnc(NC(=O)C5CC5)c4)cc3)cc(C(F)(F)F)c2)CC1 [Exe. 143]	892	–	–
6	11.4	30	O=C(Nc1ccc(Oc2ccnc(NC(=O)C3CC3)c2)cc1)Nc1cccc(C(F)(F)F)c1 [Exe. 144]	403	–	–
20.7	7.6	5.1	CS(=O)(=O)c1cc(NC(=O)Nc2ccc(Oc3ccnc(NC(=O)C4CC4)c3)cc2)cc(C(F)(F)F)c1 [Exe. 145]	1670	–	–
11.4	7.8	14	O=C(Nc1ccc(Oc2ccnc(NC(=O)C3CC3)c2)cc1)Nc1cccc(OC(F)(F)F)c1 [Exe. 146]	689	–	–
23.8	11.1	15	CC(F)(F)c1ccnc(NC(=O)Nc2ccc(Oc3ccnc(NC(=O)C4CC4)c3)cc2)c1 [Exe. 147]	1160	–	–
7.7	6.2	16	CC(F)(F)c1ccc(F)c(NC(=O)Nc2ccc(Oc3ccnc(NC(=O)C4CC4)c3)cc2)c1 [Exe. 148]	240	–	–
3.6	4.5	3.3	O=C(Nc1ccc(Oc2ccnc(NC(=O)C3CC3)c2)cc1)Nc1ccc2c(c1)C(F)(F)CCO2 [Exe. 151]	608	–	–
23	15.2	32	O=C(Nc1ccc(Oc2ccnc(NC(=O)C3CC3)c2)c(F)c1)Nc1ccc(F)c(C(F)(F)F)c1 [Exe. 153]	735	–	–
11.6	12	7.9	CN1CCC(Nc2ccc(NC(=O)Nc3ccc(Oc4ccnc(NC(=O)C5CC5)c4)c(F)c3)cc2C(F)(F)F)CC1 [Exe. 168]	31	–	–
17	14.7	32	CC(F)(F)c1cc(NC(=O)Nc2ccc(Oc3ccnc(NC(=O)C4CC4)c3)c(F)c2)ccc1Cl [Exe. 182]	752	–	–
15.7	13.6	56	CC(F)(F)c1cc(NC(=O)Nc2ccc(Oc3ccnc(NC(=O)C4CC4)c3)c(F)c2)ccc1F [Exe. 183]	230	–	–
23.5	17.2	19	CN1CCC(Oc2ccc(NC(=O)Nc3ccc(Oc4ccnc(NC(=O)C5CC5)c4)c(F)c3)cc2C(F)(F)F)CC1 [Exe. 188]	34	–	–
19.3	10.7	29.8	O=C(Nc1cc(N2CCOCC2)cc(C(F)(F)F)c1)Nc1ccc(Oc2ccnc(NC(=O)C3CC3)c2)c(F)c1 [Exe. 189]	260	–	–
